pIC50: −log10 of the molar value.
Each molecule was assayed against T1, GST-tagged GDP-loaded KRAS G12V (amino acids 1-169) (Homo sapiens, UniProt P01116, G12V) (assay: KRAS G12V probe displacement assay (TR-FRET)). Conditions: displacement of biotinylated probe 2 from GDP-loaded KRAS G12V.
T1 construct: GST-tagged GDP-loaded KRAS G12V (amino acids 1-169); made in house; host or cells: E. coli
Assay type: binding
In short: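 Probe displacement read as TR-FRET (665/620 nm) with anti-GST-Tb and streptavidin-XL665, IC50 from four-parameter logistic fit. Compound preincubated 1 h, 24 °C, with E. coli-expressed KRAS 1-169: WT at 3 nM with 60 nM probe 1, G12V at 2 nM with 2.5 nM probe 2, pH 7.5.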

T1 sequence (P01116 1-169 isoform P01116-2 G12V): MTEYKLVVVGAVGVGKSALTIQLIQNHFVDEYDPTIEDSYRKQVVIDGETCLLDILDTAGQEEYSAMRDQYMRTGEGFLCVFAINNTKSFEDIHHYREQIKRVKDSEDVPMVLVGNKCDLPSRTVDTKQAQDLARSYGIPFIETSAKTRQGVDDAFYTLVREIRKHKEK

SMILES	pIC50
C[C@H]1CCCN1c1nc(OC[C@@]23CCCN2C[C@H](F)C3)nc2c(F)c(-c3ccc(F)c4sc(N)nc34)c(C(F)(F)F)cc12 [Example 56, 7-fluoro-4-(8-fluoro-2-(((2R,7aS)-2-fluorotetrahydro-1H-pyrrolizin-7a(5H)-yl)methoxy)-4-((S)-2-methylpyrrolidin-1-yl)-6-(trifluoromethyl)quinazolin-7-yl)benzo[d]thiazol-2-amine]	7.66
CC1(C)CCCN1c1nc(OC[C@@]23CCCN2C[C@H](F)C3)nc2c(F)c(-c3ccc(F)c4sc(N)nc34)c(C(F)(F)F)cc12 [Example 57, 4-(4-(2,2-dimethylpyrrolidin-1-yl)-8-fluoro-2-(((2R,7aS)-2-fluorotetrahydro-1H-pyrrolizin-7a(5H)-yl)methoxy)-6-(trifluoromethyl)quinazolin-7-yl)-7-fluorobenzo[d]thiazol-2-amine]	6.74
CC[C@@H]1CCCN1c1nc(OC[C@@]23CCCN2C[C@H](F)C3)nc2c(F)c(-c3ccc(F)c4sc(N)nc34)c(C(F)(F)F)cc12 [Example 58, 4-(4-((R)-2-ethylpyrrolidin-1-yl)-8-fluoro-2-(((2R,7aS)-2-fluorotetrahydro-1H-pyrrolizin-7a(5H)-yl)methoxy)-6-(trifluoromethyl)quinazolin-7-yl)-7-fluorobenzo[d]thiazol-2-amine]	7.40
CC[C@H]1CCCN1c1nc(OC[C@@]23CCCN2C[C@H](F)C3)nc2c(F)c(-c3ccc(F)c4sc(N)nc34)c(C(F)(F)F)cc12 [Example 59, 4-(4-((S)-2-ethylpyrrolidin-1-yl)-8-fluoro-2-(((2R,7aS)-2-fluorotetrahydro-1H-pyrrolizin-7a(5H)-yl)methoxy)-6-(trifluoromethyl)quinazolin-7-yl)-7-fluorobenzo[d]thiazol-2-amine]	7.57
N#CCC1CCN(c2nc(OC[C@@]34CCCN3C[C@H](F)C4)nc3c(F)c(-c4ccc(F)c5sc(N)nc45)c(C(F)(F)F)cc23)C1 (stereo partly drawn) [Example 61, 2-(1-(7-(2-amino-7-fluorobenzo[d]thiazol-4-yl)-8-fluoro-2-(((2R,7aS)-2-fluorotetrahydro-1H-pyrrolizin-7a(5H)-yl)methoxy)-6-(trifluoromethyl)quinazolin-4-yl)pyrrolidin-3-yl)acetonitrile]	7.85
Nc1nc2c(-c3c(C(F)(F)F)cc4c(N5CC6CC5C6)nc(OC[C@@]56CCCN5C[C@H](F)C6)nc4c3F)ccc(F)c2s1 [Example 62, 4-(4-(2-azabicyclo[2.1.1]hexan-2-yl)-8-fluoro-2-(((2R,7aS)-2-fluorotetrahydro-1H-pyrrolizin-7a(5H)-yl)methoxy)-6-(trifluoromethyl)quinazolin-7-yl)-7-fluorobenzo[d]thiazol-2-amine]	7.66
Nc1nc2c(-c3c(C(F)(F)F)cc4c(N5CC[C@@H](O)C5)nc(OC[C@@]56CCCN5C[C@H](F)C6)nc4c3F)ccc(F)c2s1 [Example 63, (3R)-1-(7-(2-amino-7-fluorobenzo[d]thiazol-4-yl)-8-fluoro-2-(((2R,7aS)-2-fluorotetrahydro-1H-pyrrolizin-7a(5H)-yl)methoxy)-6-(trifluoromethyl)quinazolin-4-yl)pyrrolidin-3-ol]	7.96
Nc1nc2c(-c3c(C(F)(F)F)cc4c(N5CC[C@H](O)C5)nc(OC[C@@]56CCCN5C[C@H](F)C6)nc4c3F)ccc(F)c2s1 [Example 64, (3S)-1-(7-(2-amino-7-fluorobenzo[d]thiazol-4-yl)-8-fluoro-2-(((2R,7aS)-2-fluorotetrahydro-1H-pyrrolizin-7a(5H)-yl)methoxy)-6-(trifluoromethyl)quinazolin-4-yl)pyrrolidin-3-ol]	8.37
Nc1nc2c(-c3c(C(F)(F)F)cc4c(N5CC[C@@H](CO)C5)nc(OC[C@@]56CCCN5C[C@H](F)C6)nc4c3F)ccc(F)c2s1 [Example 65, ((3R)-1-(7-(2-amino-7-fluorobenzo[d]thiazol-4-yl)-8-fluoro-2-(((2R,7aS)-2-fluorotetrahydro-1H-pyrrolizin-7a(5H)-yl)methoxy)-6-(trifluoromethyl)quinazolin-4-yl)pyrrolidin-3-yl)methanol]	8.39
Nc1nc2c(-c3c(C(F)(F)F)cc4c(N5CC[C@H](CO)C5)nc(OC[C@@]56CCCN5C[C@H](F)C6)nc4c3F)ccc(F)c2s1 [Example 66, ((3S)-1-(7-(2-amino-7-fluorobenzo[d]thiazol-4-yl)-8-fluoro-2-(((2R,7aS)-2-fluorotetrahydro-1H-pyrrolizin-7a(5H)-yl)methoxy)-6-(trifluoromethyl)quinazolin-4-yl)pyrrolidin-3-yl)methanol]	8.11
Nc1nc2c(-c3c(C(F)(F)F)cc4c(N5CCCCC5)nc(OC[C@@]56CCCN5C[C@H](F)C6)nc4c3F)ccc(F)c2s1 [Example 67, 7-fluoro-4-(8-fluoro-2-(((2R,7aS)-2-fluorotetrahydro-1H-pyrrolizin-7a(5H)-yl)methoxy)-4-(piperidin-1-yl)-6-(trifluoromethyl)quinazolin-7-yl)benzo[d]thiazol-2-amine]	7.52
CC1(C#N)CCN(c2nc(OC[C@@]34CCCN3C[C@H](F)C4)nc3c(F)c(-c4ccc(F)c5sc(N)nc45)c(C(F)(F)F)cc23)CC1 [Example 69, 1-(7-(2-amino-7-fluorobenzo[d]thiazol-4-yl)-8-fluoro-2-(((2R,7aS)-2-fluorotetrahydro-1H-pyrrolizin-7a(5H)-yl)methoxy)-6-(trifluoromethyl)quinazolin-4-yl)-4-methylpiperidine-4-carbonitrile]	7.77
N#CC1(F)CCN(c2nc(OC[C@@]34CCCN3C[C@H](F)C4)nc3c(F)c(-c4ccc(F)c5sc(N)nc45)c(C(F)(F)F)cc23)CC1 [Example 70, 1-(7-(2-amino-7-fluorobenzo[d]thiazol-4-yl)-8-fluoro-2-(((2R,7aS)-2-fluorotetrahydro-1H-pyrrolizin-7a(5H)-yl)methoxy)-6-(trifluoromethyl)quinazolin-4-yl)-4-fluoropiperidine-4-carbonitrile]	8.12
N#CCC1CCN(c2nc(OC[C@@]34CCCN3C[C@H](F)C4)nc3c(F)c(-c4ccc(F)c5sc(N)nc45)c(C(F)(F)F)cc23)CC1 [Example 71, 2-(1-(7-(2-amino-7-fluorobenzo[d]thiazol-4-yl)-8-fluoro-2-(((2R,7aS)-2-fluorotetrahydro-1H-pyrrolizin-7a(5H)-yl)methoxy)-6-(trifluoromethyl)quinazolin-4-yl)piperidin-4-yl)acetonitrile]	8.00
N#CC1CCN(c2nc(OC[C@@]34CCCN3C[C@H](F)C4)nc3c(F)c(-c4ccc(F)c5sc(N)nc45)c(C(F)(F)F)cc23)CC1F (stereo partly drawn) [Example 72, 1-(7-(2-amino-7-fluorobenzo[d]thiazol-4-yl)-8-fluoro-2-(((2R,7aS)-2-fluorotetrahydro-1H-pyrrolizin-7a(5H)-yl)methoxy)-6-(trifluoromethyl)quinazolin-4-yl)-3-fluoropiperidine-4-carbonitrile]	8.70
CC1CN(c2nc(OC[C@@]34CCCN3C[C@H](F)C4)nc3c(F)c(-c4ccc(F)c5sc(N)nc45)c(C(F)(F)F)cc23)CCC1C#N (stereo partly drawn) [Example 73, 1-(7-(2-amino-7-fluorobenzo[d]thiazol-4-yl)-8-fluoro-2-(((2R,7aS)-2-fluorotetrahydro-1H-pyrrolizin-7a(5H)-yl)methoxy)-6-(trifluoromethyl)quinazolin-4-yl)-3-methylpiperidine-4-carbonitrile]	8.17

Reference: patent US20250101028A1, “HETEROCYCLIC COMPOUNDS, COMPOSITIONS THEREOF, AND METHODS OF TREATMENT THEREWITH” (BeiGene, Ltd., priority 2022, published 2025)
